Converted amounts (≈) assume the structure as drawn. Like-named read-outs stand apart in the source and are kept apart here.
Tests used:
pig liver esterase = test: HPLC-MS analysis of conjugate cleavage, model system with pig liver esterase; type: in vitro ADME; conditions: pig liver esterase 5 mg mL^−1; conjugate 150 µM; 30 °C; 0, 30, 120 min
Procedure: (§1) Conjugates 24a–d, containing the TML system, were tested for susceptibility to enzymatic cleavage in the model system with pig liver esterase and in cell-free extract prepared from C. albicans cells. Conjugate 35 containing the o-dithiobenzylcarbamoyl linker was tested in the model system with glutathione and in C. albicans cell-free extract.
(§2) Analysis of cleavage of the conjugates was performed in two experimental systems: (A) model system, in the presence of pig liver esterase or glutathione, reduced; (B) in C. albicans cell-free extract.
Mixtures containing a given conjugate at the initial concentration of 150 µM and pig liver esterase, 5 mg mL^−1 or 10 mM glutathione, reduced, in a total volume of 200 μL were incubated at 30 °C. Samples of 50 μL were collected at zero time, after 30 min, and after 120 min and subjected to HPLC-MS analysis.
(§3) The HPLC-MS system consisted of a liquid chromatograph, a degasser, a binary pomp, an auto-sampler, and a column oven, which was combined with an MS detector with an electrospray source (AJS ESI) and quadrupole analyzer (1260 Infinity II and 6470 Triple Quad LC/MS, Agilent Technologies, Waldbronn, Germany). The ChemStation software was used to control the LC-MS system and for data processing.
(§4) Chromatographic separations were performed on an Eclipse XDB-C18 column (150 mm × 4.6 mm, 5 μm). For the separation, a gradient of mobile phase A (H2O + 0.01% HCOOH) and mobile phase B (100% methanol) was used. The gradient profile was set as follows: 0 min—95% effluent A, 8 min—70% effluent A, 11 min—50% effluent A, 12 min—95% effluent A, 17 min—95% effluent A. The flow rate was 1 mL min^−1, the column temperature was 25 °C, and the injection volume was 20 μL.
(§5) The electrospray source operated in a negative mode. The data were collected in a MS scanning mode (MS2 SCAN) with the range 150–700 (m/z).

[1] = test system: C. albicans cell-free extract; type: in vitro ADME, Candida albicans; conditions: conjugate 150 µM, 30 °C, 0, 30, 120 min
Procedure: as §1
C. albicans cells were harvested from the culture in YPD medium in the logarithmic phase of growth and washed with PBS, pH 7.4. Then, cells were suspended in a minimal amount of PBS to an optical density OD660 ≈ 1.5. A sample of 1.5 mL of the cell suspension was put into the Lysing Matrix D, 2 mL tubes containing 1.4 mm ceramic spheres (MP Biomedicals). The tubes were vortexed 5 times for 2 min intervals, with 2 min breaks for cooling in the ice/water bath. Finally, the mixtures were centrifuged (10,000× g, 4 °C, 20 min), and the supernatant was pushed through the syringe filter, 0.22 μm pore size, to remove unbroken cells. The thus-obtained cell-free extract was kept at 4 °C and used no later than 5 h after preparation.
as §2
A given conjugate was dissolved in 4 mL of C. albicans cell-free extract to the initial concentration of 150 µM. Mixtures were incubated at 30 °C. Samples of 1 mL were collected at zero time, after 30 min, and after 120 min. The collected samples were immediately de-proteinized by centrifugation (4 °C, 5000× g, 10 min) in Amicon® Ultra-4 Centrifugal Filter Units, 3 kDa cutoff limit. Samples of 50 μL were collected from the filtrates and subjected to HPLC-MS analysis.
as §3, §4, §5

Candida spp. = test: Antifungal in vitro activity, summary statements over the Candida strains tested; type: cell-based
Procedure: (§6) The antifungal in vitro activity of conjugates 24a–d and 35 was determined by the serial two-fold dilution method, using the 96-well microtiter plates, in two growth media, RPMI-1640 and YNB-AS, against seven yeast species from the Candida genus. The MIC50 and MIC90 values, i.e., concentrations at which cell growth was inhibited in 50% and 90%, respectively, were measured and compared to those of the intact cispentacin. The concentration values presented in Table 1 and Table 2 are expressed in mM units to allow the comparison of the compounds’ effectiveness at the molecular level. For data expressed in μg mL^−1 units, such comparison is not possible, since the molecular masses of conjugates (≈1755–2114 D range) are 14–16-fold higher than that of cispentacin (128.3 D).
(§7) Susceptibility testing was performed in two growth media: (a) RPMI-1640 w/o sodium bicarbonate, with L-glutamine + 2% glucose + 3.45% MOPS, pH adjusted to 7.0; (b) YNB-AS—Yeast Nitrogen Base w/o amino acids (contains ammonium sulfate 5 g L^−1) + 2% glucose. The in vitro growth inhibitory activity of antifungals was quantified by determination of MIC50 and MIC90 values by the serial two-fold dilution method, using the 96-well microtiter plates. Serial dilutions of cispentacin and its conjugates were prepared in the 4–0.015 mM range.
(§8) Conditions of the RPMI-1640-based assay were the same as outlined in the CLSI recommendations except for the end-point readout that was done by spectrophotometric determination of cell density at 660 nm. Turbidity in individual wells was measured with a microplate reader (Victor^3; Perkin Elmer). The 96-well microtiter plates were also used for the determination of in vitro growth inhibitory activity in YNB-AS medium. Individual wells were inoculated with 5 × 10^3 Candida cells mL^−1 from the overnight culture in YPD medium. The plates were incubated at 37 °C for 24 h, and then, turbidity was measured with a microplate reader at 660 nm, as described above for the RPMI-1640-based assay.
(§9) Values of MIC50 and MIC90 were read from the graphs of A660 vs. drug concentration and corresponded to the interpolated values of drug concentration at which A660 was 50% or 10% of that measured for the drug-free control.

Candida krusei DSM 6128 [2] = test: Antifungal in vitro activity, serial two-fold dilution, RPMI-1640 medium; type: cell-based; conditions: Pichia kudriavzevii, DSM6128, C. krusei
Procedure: as §6
(§10) The reference strains used in this study were Candida albicans ATCC 10231, Candida glabrata DSM 11226, and Candida krusei DSM 6128. C. albicans B3, B4, Gu4, and Gu5 clinical isolates were kindly provided by Joachim Morschhäuser, Würzburg, Germany. Gu4 and B3 are fluconazole-sensitive isolates obtained from early infection episodes, while Gu5 and B4 are the corresponding fluconazole-resistant isolates obtained from later episodes in the same patients treated with fluconazole. Strains were grown at 30 °C in YPD medium (2% glucose, 1% yeast extract, and 1% Bacto-Peptone) and stored on YPD agar plates containing 2% agar.
as §7, §8, §9

[3] = test system: Candida glabrata DSM 11226; test: as above; type: cell-based; conditions: Nakaseomyces glabratus, DSM11226, C. glabrata
Procedure: as §6, §10, §7, §8, §9

C. albicans Gu4 [4] = test: as above; type: cell-based; conditions: Candida albicans, C. albicans Gu4 (fluconazole-sensitive isolate)
Procedure: as §6, §10, §7, §8, §9

C. albicans Gu5 [5] = test: as above; type: cell-based; conditions: Candida albicans, C. albicans Gu5 (fluconazole-resistant isolate)
Procedure: as §6, §10, §7, §8, §9

C. albicans B3 [6] = test: as above; type: cell-based; conditions: Candida albicans, C. albicans B3 (fluconazole-sensitive isolate)
Procedure: as §6, §10, §7, §8, §9

C. albicans B4 [7] = test: as above; type: cell-based; conditions: Candida albicans, C. albicans B4 (fluconazole-resistant isolate)
Procedure: as §6, §10, §7, §8, §9

C. albicans ATCC 10231 [8] = test: Antifungal in vitro activity, serial two-fold dilution, YNB-AS medium; type: cell-based; conditions: Candida albicans, ATCC10231, >>1 = no growth inhibition at 1 mM
Procedure: (§11) The antifungal in vitro activity of conjugates 24a–d and 35 was determined by the serial two-fold dilution method, using the 96-well microtiter plates, in two growth media, RPMI-1640 and YNB-AS, against seven yeast species from the Candida genus. The MIC50 and MIC90 values, i.e., concentrations at which cell growth was inhibited in 50% and 90%, respectively, were measured and compared to those of the intact cispentacin. The concentration values presented in Table 1 and Table 2 are expressed in mM units to allow the comparison of the compounds’ effectiveness at the molecular level. […]
(§12) Susceptibility testing was performed in two growth media: (a) RPMI-1640 w/o sodium bicarbonate, with L-glutamine + 2% glucose + 3.45% MOPS, pH adjusted to 7.0; (b) YNB-AS—Yeast Nitrogen Base w/o amino acids (contains ammonium sulfate 5 g L^−1) + 2% glucose. The in vitro growth inhibitory activity of antifungals was quantified by determination of MIC50 and MIC90 values by the serial two-fold dilution method, using the 96-well microtiter plates. […]
(§13) Conditions of the RPMI-1640-based assay were the same as outlined in the CLSI recommendations except for the end-point readout that was done by spectrophotometric determination of cell density at 660 nm. Turbidity in individual wells was measured with a microplate reader (Victor^3; Perkin Elmer). […]

Candida krusei DSM 6128 [9] = test: as above; type: cell-based; conditions: Pichia kudriavzevii, DSM6128, C. krusei
Procedure: as §6, §10, §7, §8, §9

[10] = test system: Candida glabrata DSM 11226; test: as above; type: cell-based; conditions: Nakaseomyces glabratus, DSM11226, C. glabrata
Procedure: as §6, §10, §7, §8, §9

C. albicans Gu4 [11] = test: as above; type: cell-based; conditions: Candida albicans, C. albicans Gu4 (fluconazole-sensitive isolate)
Procedure: as §6, §10, §7, §8, §9

C. albicans Gu5 [12] = test: as above; type: cell-based; conditions: Candida albicans, C. albicans Gu5 (fluconazole-resistant isolate)
Procedure: as §6, §10, §7, §8, §9

C. albicans B3 [13] = test: as above; type: cell-based; conditions: Candida albicans, C. albicans B3 (fluconazole-sensitive isolate)
Procedure: as §6, §10, §7, §8, §9

C. albicans B4 [14] = test: as above; type: cell-based; conditions: Candida albicans, C. albicans B4 (fluconazole-resistant isolate)
Procedure: as §6, §10, §7, §8, §9

C. albicans ATCC 10231 [15] = test: Antifungal in vitro activity, serial two-fold dilution, RPMI-1640 medium; type: cell-based; conditions: Candida albicans, ATCC10231, >>1 = no growth inhibition at 1 mM
Procedure: as §11, §12, §13

Cc1cc(C)c(C(C)(C)CC(=O)N[C@H]2CCC[C@H]2C(=O)O)c(OC(=O)CCCCCC(=O)N(CCCCNC(=O)CC[C@@H](C)[C@H]2CC[C@H]3[C@@H]4[C@H](OS(=O)(=O)O)C[C@@H]5C[C@H](OS(=O)(=O)O)CC[C@]5(C)[C@H]4C[C@H](OS(=O)(=O)O)[C@]23C)CCCNC(=O)CC[C@@H](C)[C@H]2CC[C@H]3[C@@H]4[C@H](OS(=O)(=O)O)C[C@@H]5C[C@H](OS(=O)(=O)O)CC[C@]5(C)[C@H]4C[C@H](OS(=O)(=O)O)[C@]23C)c1 [24c]
cleavage / release of cispentacin (HPLC-MS) (pig liver esterase): Presence of the released cispentacin was confirmed | cleavage / release of cispentacin or its derivative (HPLC-MS) [1]: the product of a possible cleavage, with RT similar to that of cispentacin but with 17 D higher MW, was formed

Cc1cc(C)c(C(C)(C)CC(=O)N[C@H]2CCC[C@H]2C(=O)O)c(OC(=O)CCCCCCC(=O)N(CCCCNC(=O)CC[C@@H](C)[C@H]2CC[C@H]3[C@@H]4[C@H](OS(=O)(=O)O)C[C@@H]5C[C@H](OS(=O)(=O)O)CC[C@]5(C)[C@H]4C[C@H](OS(=O)(=O)O)[C@]23C)CCCNC(=O)CC[C@@H](C)[C@H]2CC[C@H]3[C@@H]4[C@H](OS(=O)(=O)O)C[C@@H]5C[C@H](OS(=O)(=O)O)CC[C@]5(C)[C@H]4C[C@H](OS(=O)(=O)O)[C@]23C)c1 [24d]
cleavage / release of cispentacin (HPLC-MS) (pig liver esterase): Presence of the released cispentacin was confirmed | cleavage / release of cispentacin or its derivative (HPLC-MS) [1]: the product of a possible cleavage, with RT similar to that of cispentacin but with 17 D higher MW, was formed | cleavage / release of cispentacin or its derivative (HPLC-MS) ([1]; listed as 26d): found cleavable in the cell-free extract | antifungal activity (Candida spp.; RPMI-1640 medium): devoid of antifungal activity | antifungal activity (Candida spp.; both growth media (RPMI-1640 and YNB-AS)): inactive in both media | antifungal activity (Candida spp.; both growth media (RPMI-1640 and YNB-AS), listed as 26d): not active as an antifungal

N[C@H]1CCC[C@H]1C(=O)O [CisP, cispentacin]
MIC50 (Candida krusei DSM 6128 [2]): 280 µM (≈ 36.2 µg/mL) | MIC90 (Candida krusei DSM 6128 [2]): 570 µM (≈ 73.6 µg/mL) | MIC50 [3]: 510 µM (≈ 65.9 µg/mL) | MIC90 [3]: > 1000 µM | MIC50 (C. albicans Gu4 [4]): 260 µM (≈ 33.6 µg/mL) | MIC90 (C. albicans Gu4 [4]): 420 µM (≈ 54.2 µg/mL) | MIC50 (C. albicans Gu5 [5]): 410 µM (≈ 53 µg/mL) | MIC90 (C. albicans Gu5 [5]): 640 µM (≈ 82.7 µg/mL) | MIC50 (C. albicans B3 [6]): 210 µM (≈ 27.1 µg/mL) | MIC90 (C. albicans B3 [6]): 360 µM (≈ 46.5 µg/mL) | MIC50 (C. albicans B4 [7]): 340 µM (≈ 43.9 µg/mL) | MIC90 (C. albicans B4 [7]): 580 µM (≈ 74.9 µg/mL) | MIC50 (C. albicans ATCC 10231 [8]): 20 µM (≈ 2.58 µg/mL) | MIC90 (C. albicans ATCC 10231 [8]): 100 µM (≈ 12.9 µg/mL) | MIC50 (Candida krusei DSM 6128 [9]): 90 µM (≈ 11.6 µg/mL) | MIC90 (Candida krusei DSM 6128 [9]): 150 µM (≈ 19.4 µg/mL) | MIC50 [10]: 100 µM (≈ 12.9 µg/mL) | MIC90 [10]: 500 µM (≈ 64.6 µg/mL) | MIC50 (C. albicans Gu4 [11]): 150 µM (≈ 19.4 µg/mL) | MIC90 (C. albicans Gu4 [11]): 180 µM (≈ 23.2 µg/mL) | MIC50 (C. albicans Gu5 [12]): 270 µM (≈ 34.9 µg/mL) | MIC90 (C. albicans Gu5 [12]): 390 µM (≈ 50.4 µg/mL) | MIC50 (C. albicans B3 [13]): 110 µM (≈ 14.2 µg/mL) | MIC90 (C. albicans B3 [13]): 150 µM (≈ 19.4 µg/mL) | MIC50 (C. albicans B4 [14]): 170 µM (≈ 22 µg/mL) | MIC90 (C. albicans B4 [14]): 280 µM (≈ 36.2 µg/mL) | MIC50 (C. albicans ATCC 10231 [15]): 80 µM (≈ 10.3 µg/mL) | MIC90 (C. albicans ATCC 10231 [15]): 340 µM (≈ 43.9 µg/mL)

Reference: paper PMC8465315, “Molecular Umbrella as a Nanocarrier for Antifungals” (Molecules, 2021)
